Assay results from US20090010976A1, “Cosmetic or dermopharmaceutical compositions containing kombucha” (SEDERMA, priority 2002, published 2009).

Tested on: serum albumin
Assay: Anti-glycation effect: serum albumin incubated with fructose, fluorescent 'AGE' (FFI) formation
Format: biochemical
Conditions: one week
Protocol: Principle: The in vitro model consists in serum albumin incubated with fructose at […]. Glycation is monitored through the formation of fluorescent compounds, generally pentosidines or FFI (furoyl-furanyl-imidazoles.
Protocol: Non-enzymatic glycation between serum albumin and fructose is a slow spontaneous reaction that is accelerated by heat.
In our test, serum albumin (at 2%) and fructose (at 100 mM) were incubated in phosphate buffer medium pH 7.4 at 50° C. for one week. […] The reference (Control) glycation value after one week is determined on the serum albumin and fructose incubation medium. The positive control for glycation inhibition is obtained by incubation in the presence of 0.03% aminoguanidine and the test incubations were conducted in the presence of kombucha at various concentrations.
Results: For each fluorescence value determined, the percentage change on the control is calculated. The results shown in the following table are mean values for n=4 replicates.

- % 'AGE' decrease (inhibition of 'AGE' production, FFI compounds) (aminoguanidine 0.03%, serum albumin 2% + fructose 100 mM, pH 7.4, 50° C., mean of n=4): 89 ± 5%
SMILES: N=C(N)NN [aminoguanidine]
- Inhibition of glycation, result in words (serum albumin + fructose, 50° C.): excellent inhibition of glycation
